According to paper PMC12610573, “New Chlormequat-Based Ionic Liquids as Plant Resistance Inducers” (Molecules, 2025):

Legend:
[1] = Solubility tests in representative solvents (Vogel protocol); settings: 25 °C; for solubility: thermodynamic from solid
Procedure: The solubilities of the prepared ILs in ten representative solvents were determined according to the protocols from Vogel’s Textbook of Practical Organic Chemistry. The solvents chosen for the study were arranged in order of descending value of their Snyder polarity index: water—9.0, methanol—6.6, acetone—5.1, isopropanol—4.3, toluene—2.3, and hexane—0.0.

[2] = test system: radish (Raphanus sativus) sprouts; test: Phytotoxicity test on radish sprouts; assay type: in vivo; settings: for Mass of 25 Sprouts: radish, 5 days, UTC 3.09 g; for Reduction in Sprout Mass: compared with untreated control
Procedure: Twenty five seeds of radish (Raphanus sativus) were placed on a filter tissue in a Petri dish. […] Then, sprouts were weighted. All variants of treatment were tested together, with 3 replications (plates) in each of 2 cycles performed. Results were subjected to statistical analysis as described in Section 4.8.
(§1) Statistical significance of the effect of the treatments of plants with tested compounds on the phytotoxicity and SAR induction was assessed with the ANOVA test performed using the Statistica program StatSoft with software version 9.1 (StatSoft Sp. z o.o., Kraków, Poland). The statistical assumptions of normality and homogeneity of variances were verified prior to conducting the ANOVA tests. Differences between the means were estimated with Tukey’s HSD test at the significance level of p = 0.05.

[3] = test system: Tobamovirus tabaci (tobacco mosaic virus, TMV) on Nicotiana tabacum cv. Xanthi; test: SAR induction assay: necrotic area after TMV inoculation of sprayed tobacco; assay type: in vivo; settings: for SAR Induction (percentage of necrotic area on leaves): TMV inoculation after 7 days, read 7 days later, UTC 34.54; for Reduction in Necrotic Area: compared with untreated control plants; for Percentage of necrotic spot coverage (leaf shown in supplementary figure): single leaf image
Procedure: Plants of Nicotiana tabacum cv. Xanthi were grown under greenhouse conditions at 25 °C and 50% relative humidity, under natural daylight during the May–August growing season, with a natural photoperiod. The plants were sprayed with solutions containing the tested compounds.
In all experiments, the TMV SL-1 isolate Tobamovirus (TMV) was used. To obtain a viral inoculum, Nicotiana tabacum cv. Samsun plants were sap-inoculated with previously virus-infected plant material. After the appearance of disease symptoms on the infected plants (leaf mosaic), the virus was isolated by sucrose density gradient centrifugation with 0.01 M Tris-HCl, pH 7.0, to prepare the infectious inoculum. The concentration of virus in the obtained preparation was determined spectrophotometrically. The samples of TMV were stored at −20 °C until use.
The tested active substances at a given concentration were sprayed on tobacco plants with three fully developed leaves. The volume of working solution used was equal to 10 mL per plant. The compounds were dissolved in a water/propylene glycol solution (95/5, v/v). The plants of the untreated control variant were sprayed with a water/propylene glycol solution (95/5, v/v) that was used for the preparation of solutions of the tested compounds. After seven days, the plants were mechanically inoculated using purified viral preparations (0.01 ng/mL as described in [34]).
The plants were inoculated with the TMV inoculum at a concentration of 3.8 × 10^−4 ng per leaf. For each variant of treatment, 3 plants were sprayed, and 3 leaves of each plant were analyzed. The entire experiment was performed in 2 replicates. Necrotic areas on the leaves were determined using ImageJ software.
The surface of a leaf or an area with necrotic spots is represented by a set of pixels in the image, which are counted by the program. Reduction in necrotic area (ISAR) is expressed by the following formula:(1) ISAR=100−(At/Ac∗100) where At is the ratio of the area of necrotic spots caused by viral infection that appeared on the leaf treated with the test substance to the whole area of the leaf; Ac is the ratio of the area of the necrotic spots caused by viral infection that appeared on the leaf of the control plant to the whole area of the leaf.
as §1

[4] = Thermogravimetric analysis (TGA), thermal stability; settings: TGA under nitrogen, 10 °C/min; for Thermal Stability T5%onset: 5% weight loss onset; for Thermal Stability Tonset: decomposition onset
Procedure: TGA was performed on a TGA Q50 (Texas Instruments, Dallas, TX, USA) under nitrogen. Samples (5–10 mg) were heated from 25 °C to 500 °C at 10 °C/min with an isothermal step at 85 °C for 10 min. T5%onset and Tonset values were recorded.

[5] = topical, read-out: Reduction in Necrotic Area

Row | Structure (SMILES) | Solubility in Hexane ([1]; Snyder polarity index 0.0) | Solubility in Toluene ([1]; Snyder polarity index 2.3) | Solubility in Isopropanol ([1]; Snyder polarity index 4.3) | Solubility in Acetone ([1]; Snyder polarity index 5.1) | Solubility in Methanol ([1]; Snyder polarity index 6.6) | Solubility in Water ([1]; Snyder polarity index 9.0) | Mass of 25 Sprouts ([2]; 125 mg/L) | Reduction in Sprout Mass ([2]; 250 mg/L) [%] | Mass of 25 Sprouts ([2]; 250 mg/L) | SAR Induction (percentage of necrotic area on leaves) ([3]; 125 mg/L spray) | Reduction in Necrotic Area ([3]; 125 mg/L) [%] | SAR Induction (percentage of necrotic area on leaves) ([3]; 250 mg/L spray) | Reduction in Necrotic Area ([3]; 250 mg/L) [%] | Thermal Stability T5%onset [4] [°C] | Thermal Stability Tonset [4] [°C] | Reduction in Sprout Mass ([2]; 125 mg/L) [%] | other results
1 | C[N+](C)(C)CCCl.O=C([O-])c1ccc(Cl)cc1O [[CC][4-ClSal]] | − (insoluble) | − (insoluble) | +/− (of limited solubility) | − (insoluble) | + (soluble) | +/− (of limited solubility) | 2.84 hi D g | 19.63 | 2.48 ij C g | 12.47 bc B % | 63.9 | 7.85 bcde A % | 77.3 | 205.3 | 137.2 | – | –
2 | C[N+](C)(C)CCCl.O=C([O-])c1cc(Cl)ccc1O [[CC][5-ClSal]] | − (insoluble) | − (insoluble) | +/− (of limited solubility) | − (insoluble) | + (soluble) | +/− (of limited solubility) | 2.50 efg D | 30.15 | 2.16 fgh C | 3.15 a AB % | 90.9 | 1.58 a A % | 95.4 | 217.1 | 138.5 | 19.15 | Percentage of necrotic spot coverage (leaf shown in supplementary figure) ([3]; 125 mg/L): 2.28%; Percentage of necrotic spot coverage (leaf shown in supplementary figure) ([3]; 250 mg/L): 1.15%; Difference in percentage reduction in leaf necrotic area between 125 mg/L and 250 mg/L ([3]; in vivo): approximately 4.5 percentage points
3 | C[N+](C)(C)CCCl.O=C([O-])c1cc(Cl)nc(Cl)c1 [[CC][Ina]] | − (insoluble) | − (insoluble) | +/− (of limited solubility) | − (insoluble) | + (soluble) | + (soluble) | 2.63 fgh D | 28.21 | 2.22 gh C | 14.80 cd AB % | 57.2 | 12.52 ef A % | 63.8 | 177.2 | – | 15.05 | –
4 | C[N+](C)(C)CCCl.O=C([O-])c1ccccc1O [[CC][Sal], chlormequat salicylate] | – | – | – | – | – | – | 2.82 hi C g | 26.91 | 2.26 hi B g | 19.99 de B % | – | 12.39 ef A % | – | 186.1 | 93.3 | 8.79 | solubility ([1]; organic solvent or mixture, Solubility in Acetone, Snyder polarity index 5.1): < 33.3 mg/mL; solubility ([1]; organic solvent or mixture, Solubility in Hexane, Snyder polarity index 0.0): < 33.3 mg/mL; solubility ([1]; organic solvent or mixture, Solubility in Isopropanol, Snyder polarity index 4.3): 33.3 to 100 mg/mL; solubility ([1]; organic solvent or mixture, Solubility in Methanol, Snyder polarity index 6.6): > 100 mg/mL; solubility ([1]; organic solvent or mixture, Solubility in Toluene, Snyder polarity index 2.3): < 33.3 mg/mL; solubility ([1]; water, Solubility (water)): > 100 mg/mL; solubility ([1]; water, Solubility in Water, Snyder polarity index 9.0): > 100 mg/mL; pest or weed control at 125 µg/mL [3, 5]: 42.1%; pest or weed control at 250 µg/mL [3, 5]: 64.1%
